Results published in ChEMBL document CHEMBL1909046, “DrugMatrix in vitro pharmacology data”.

Legend:
[1] = molecular target: T1, Neutrophil elastase (Homo sapiens, UniProt P08246); format: tissue-based;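 note: inhibition of neutrophil elastase enzyme activity, measured with a p-nitroanilide-linked peptide substrate; in other assays of this panel Not Active means under 50% inhibition at 10 µM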
T1 sequence (P08246 whole entry): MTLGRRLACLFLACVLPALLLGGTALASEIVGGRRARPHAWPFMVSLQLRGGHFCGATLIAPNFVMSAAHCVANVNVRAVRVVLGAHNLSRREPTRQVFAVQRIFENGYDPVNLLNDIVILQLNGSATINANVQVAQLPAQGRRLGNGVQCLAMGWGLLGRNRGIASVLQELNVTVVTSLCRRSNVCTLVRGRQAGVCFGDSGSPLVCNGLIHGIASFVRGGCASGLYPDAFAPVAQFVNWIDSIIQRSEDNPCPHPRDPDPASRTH

[2] = molecular target: Mitogen-activated protein kinase 3 (Homo sapiens, UniProt P27361); assay: DRUGMATRIX: Protein Serine/Threonine Kinase, ERK1 enzyme inhibition (substrate: Myelin Basic Protein); parameters: species or system Escherichia coli; details: Not Active = under 50% inhibition at 10 µM
Sequence of Mitogen-activated protein kinase 3 (P27361 whole entry): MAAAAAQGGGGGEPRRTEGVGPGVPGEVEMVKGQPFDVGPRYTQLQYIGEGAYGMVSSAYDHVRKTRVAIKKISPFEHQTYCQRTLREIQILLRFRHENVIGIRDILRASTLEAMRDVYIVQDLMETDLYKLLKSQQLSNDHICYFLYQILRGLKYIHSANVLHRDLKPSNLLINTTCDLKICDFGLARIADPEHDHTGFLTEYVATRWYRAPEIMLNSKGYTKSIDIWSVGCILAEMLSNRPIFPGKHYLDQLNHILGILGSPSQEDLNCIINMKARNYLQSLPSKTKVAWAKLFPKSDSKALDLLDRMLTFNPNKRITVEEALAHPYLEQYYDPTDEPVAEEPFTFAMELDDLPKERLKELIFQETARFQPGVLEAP

[3] = molecular target: T2, Neuropeptide Y receptor type 1 (Homo sapiens, UniProt P25929); format: cell membranes, Membrane; details: sk-n-mc; note: in other assays of this panel Not Active means under 50% inhibition at 10 µM
T2 sequence (P25929 whole entry): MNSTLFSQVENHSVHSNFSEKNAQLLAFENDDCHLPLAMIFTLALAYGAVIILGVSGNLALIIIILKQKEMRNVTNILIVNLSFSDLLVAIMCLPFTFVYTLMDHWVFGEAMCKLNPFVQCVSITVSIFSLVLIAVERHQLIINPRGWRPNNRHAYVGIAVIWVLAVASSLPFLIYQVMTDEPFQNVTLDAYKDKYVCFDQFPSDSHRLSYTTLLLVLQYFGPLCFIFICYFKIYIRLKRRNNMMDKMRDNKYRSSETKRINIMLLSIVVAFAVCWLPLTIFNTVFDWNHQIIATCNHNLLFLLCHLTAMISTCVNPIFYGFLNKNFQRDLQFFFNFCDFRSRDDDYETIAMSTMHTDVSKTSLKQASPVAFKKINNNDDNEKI

[4] = molecular target: cGMP-specific 3',5'-cyclic phosphodiesterase (Homo sapiens, UniProt O76074); assay: DRUGMATRIX: Phosphodiesterase PDE5 enzyme inhibition (substrate: [3H]cGMP + cGMP); format: tissue-based, Platelet; details: platelet; Not Active = under 50% inhibition at 10 µM
[5] = molecular target: Kappa-type opioid receptor (Homo sapiens, UniProt P41145); assay: DRUGMATRIX: Opiate kappa (OP2, KOP) radioligand binding (ligand: [3H] Diprenorphine); format: cell membranes, HEK293, Membrane; details: hek293; Not Active = under 50% inhibition at 10 µM
Sequence of Kappa-type opioid receptor (P41145 whole entry): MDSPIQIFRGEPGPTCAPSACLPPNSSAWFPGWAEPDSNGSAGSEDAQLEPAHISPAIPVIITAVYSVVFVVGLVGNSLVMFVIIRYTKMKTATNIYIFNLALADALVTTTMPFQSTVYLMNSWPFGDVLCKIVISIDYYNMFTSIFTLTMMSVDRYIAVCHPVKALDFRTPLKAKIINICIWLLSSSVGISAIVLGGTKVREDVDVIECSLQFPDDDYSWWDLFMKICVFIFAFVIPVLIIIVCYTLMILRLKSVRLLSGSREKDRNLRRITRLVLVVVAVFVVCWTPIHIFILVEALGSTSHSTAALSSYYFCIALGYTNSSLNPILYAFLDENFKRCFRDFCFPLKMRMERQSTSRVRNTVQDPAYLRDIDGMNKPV

[6] = molecular target: Mu-type opioid receptor (Homo sapiens, UniProt P35372); assay: DRUGMATRIX: Opiate mu (OP3, MOP) radioligand binding (ligand: [3H] Diprenorphine); format: cell membranes, CHO-K1, Membrane; details: cho-k1; Not Active = under 50% inhibition at 10 µM
Sequence of Mu-type opioid receptor (P35372 whole entry): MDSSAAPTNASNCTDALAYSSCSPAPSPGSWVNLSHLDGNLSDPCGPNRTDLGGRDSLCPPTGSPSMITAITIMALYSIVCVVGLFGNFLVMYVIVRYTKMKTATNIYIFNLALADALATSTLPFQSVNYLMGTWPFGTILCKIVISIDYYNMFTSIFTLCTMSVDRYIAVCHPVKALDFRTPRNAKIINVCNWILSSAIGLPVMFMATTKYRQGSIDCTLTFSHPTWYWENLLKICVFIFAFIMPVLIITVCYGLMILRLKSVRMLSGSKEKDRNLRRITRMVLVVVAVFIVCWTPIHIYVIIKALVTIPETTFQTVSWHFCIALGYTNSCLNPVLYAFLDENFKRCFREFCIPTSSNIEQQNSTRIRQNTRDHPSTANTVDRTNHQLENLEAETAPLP

[7] = DRUGMATRIX: GABAA, Flunitrazepam, Central radioligand binding (ligand: [3H] Flunitrazepam); format: cell membranes, Rattus norvegicus, Wistar, Brain, Membrane; details: Not Active = under 50% inhibition at 10 µM

O=C(O)CCc1nc(-c2ccccc2)c(-c2ccccc2)o1 [OXAPROZIN]
Not Active: IC50 [1] | IC50 [2] | IC50 [3] | IC50 [4] | IC50 [5] | IC50 [6] | IC50 [7] | Ki [7]

Oc1ccccc1 [PHENOL]
Not Active: IC50 [1] | IC50 [2] | IC50 [3] | IC50 [4] | IC50 [5] | IC50 [6] | IC50 [7] | Ki [7]

Nc1nc(F)nc2c1ncn2[C@@H]1O[C@H](CO)[C@@H](O)[C@@H]1O [FLUDARABINE]
Not Active: IC50 [1] | IC50 [2] | IC50 [3] | IC50 [4] | IC50 [5] | IC50 [6] | IC50 [7] | Ki [7]

O=C1CN(/N=C/c2ccc([N+](=O)[O-])o2)C(=O)N1 [NITROFURANTOIN]
Not Active: IC50 [1] | IC50 [2] | IC50 [3] | IC50 [4] | IC50 [5] | IC50 [6] | IC50 [7] | Ki [7]

CC12CCC(CC1=O)C2(C)C (centres undefined) [CAMPHOR]
Not Active: IC50 [1] | IC50 [2] | IC50 [3] | IC50 [4] | IC50 [5] | IC50 [6] | IC50 [7] | Ki [7]

Nc1nc(N)c2nc(CNc3ccc(C(=O)N[C@@H](CCC(=O)O)C(=O)O)cc3)cnc2n1 [AMINOPTERIN]
Not Active: IC50 [1] | IC50 [2] | IC50 [3] | IC50 [4] | IC50 [5] | IC50 [6] | IC50 [7] | Ki [7]

Cc1c(N)nc([C@H](CC(N)=O)NC[C@H](N)C(N)=O)nc1C(=O)N[C@H](C(=O)N[C@H](C)[C@@H](O)[C@H](C)C(=O)N[C@H](C(=O)NCCc1nc(-c2nc(C(=O)NCCC[S+](C)C)cs2)cs1)[C@@H](C)O)[C@@H](O[C@@H]1O[C@@H](CO)[C@@H](O)[C@H](O)[C@@H]1O[C@H]1O[C@H](CO)[C@@H](O)[C@H](OC(N)=O)[C@@H]1O)c1c[nH]cn1.[Br-] [BLEOMYCIN A2]
Not Active: IC50 [1] | IC50 [2] | IC50 [3] | IC50 [4] | IC50 [5] | IC50 [6] | IC50 [7] | Ki [7]

OC[C@H]1O[C@@H]2O[C@H]3[C@H](O)[C@@H](O)[C@@H](O[C@H]4[C@H](O)[C@@H](O)[C@@H](O[C@H]5[C@H](O)[C@@H](O)[C@@H](O[C@H]6[C@H](O)[C@@H](O)[C@@H](O[C@H]7[C@H](O)[C@@H](O)[C@@H](O[C@H]1[C@H](O)[C@H]2O)O[C@@H]7CO)O[C@@H]6CO)O[C@@H]5CO)O[C@@H]4CO)O[C@@H]3CO [ALFADEX]
Not Active: IC50 [1] | IC50 [2] | IC50 [3] | IC50 [4] | IC50 [5] | IC50 [6] | IC50 [7] | Ki [7]
